The compounds below were run against CDK2 (UniProt P24941) (assay: Enzyme Assay).
`Cc1cnc(NC2CC2)nc1-c1c[nH]c(C(=O)N[C@H](CO)c2ccccc2)c1` showed a Ki of 0.1 to 1 µM. `Cc1cnc(Nc2cccc(F)c2)nc1-c1c[nH]c(C(=O)NC(CO)c2cccc(C(F)(F)F)c2)c1` (configuration not stated) gave a Ki of 0.1 to 1 µM. `Cc1cnc(NC2(CO)CC2)nc1-c1c[nH]c(C(=O)N[C@H](CO)c2ccccc2)c1` was tested, and the Ki was 0.1 to 1 µM. Work on `Cc1cnc(NCc2ccccc2)nc1-c1c[nH]c(C(=O)N[C@H](CO)c2ccccc2)c1` yielded a Ki of 0.1 to 1 µM. In the case of `CCNc1ncc(C)c(-c2c[nH]c(C(=O)N[C@H](CO)c3ccccc3)c2)n1`, the Ki is reported as 1 to 20 µM. With `Cc1cnc(Nc2ccc(OCc3ccccc3)cc2)nc1-c1c[nH]c(C(=O)N[C@H](CO)c2ccccc2)c1` the Ki was less than 0.1 µM. `COc1ccccc1Nc1ncc(C)c(-c2c[nH]c(C(=O)N[C@H](CO)c3ccccc3)c2)n1` was tested, and the Ki was 1 to 20 µM. `Cc1cnc(NCC2CC2)nc1-c1c[nH]c(C(=O)N[C@H](CO)c2ccccc2)c1` was tested, and the Ki was 1 to 20 µM. `Cc1cnc(Nc2cccc(C(F)(F)F)c2)nc1-c1c[nH]c(C(=O)N[C@H](CO)c2ccccc2)c1` gave a Ki of less than 0.1 µM. Compound `Cc1cnc(N[C@H]2CC[C@H](O)CC2)nc1-c1c[nH]c(C(=O)N[C@H](CO)c2ccccc2)c1` has a Ki of less than 0.1 µM. Work on `Cc1cnc(N[C@@H](CO)c2ccccc2)nc1-c1c[nH]c(C(=O)N[C@H](CO)c2ccccc2)c1` yielded a Ki of 0.1 to 1 µM. With `Cc1cnc(Nc2ccccc2)nc1-c1c[nH]c(C(=O)NC(CO)c2cccc(C(F)(F)F)c2)c1` (configuration not stated) the Ki was 0.1 to 1 µM.
